Results on six molecules are retold here after patent US7034049B1, “3(5)-amino-pyrazole derivatives, process for their preparation and their use as antitumor agents” (Pharmacia Italia S.p.A., priority 1999, dated 2006).

The melting point is the temperature, or range, at which the solid turns liquid. Molecule `O=C(Nc1cc(C2CC2)n[nH]1)c1cc2ccccc2[nH]1` [Compound 102, N-(3-cyclopropyl-1H-pyrazol-5-yl)-1H-indole-2-carboxamide] displayed a melting point of 268 to 269 °C.

The molecule `O=C(Nc1cc(C2CC2)n[nH]1)c1ccc[nH]1` [Compound 248, N-(3-cyclopropyl-1H-pyrazol-5-yl)-1H-pyrrole-2-carboxamide] gave a melting point of 220 to 221 °C.

Molecule `O=C(CCc1ccccc1)Nc1cc(C2CC2)n[nH]1` [Compound 93, N-(3-cyclopropyl-1H-pyrazol-5-yl)-3-phenylpropanamide] came in with a melting point of 152 to 160 °C.

Consider `COC(=O)c1ccc(C(=O)Nc2cc(C3CC3)n[nH]2)cc1` [Compound 94, Methyl 4-{[(3-cyclopropyl-1H-pyrazol-5-yl)amino]carbonyl}benzoate], for which the melting point was in the range of 173 to 174 °C.

Consider `O=C(Nc1cc(C2CC2)n[nH]1)c1cc2ccccc2s1` [Compound 91, N-(3-cyclopropyl-1H-pyrazol-5-yl)-1-benzothiophene-2-carboxamide], for which the melting point fell in the range of 238 to 239 °C.

`CC(=O)Nc1cc(C2CC2)n[nH]1` [Compound 88, N-(3-cyclopropyl-1H-pyrazol-5-yl)acetamide] showed a melting point of 167 to 171 °C.
